From ChEMBL document CHEMBL1201862, “PubChem BioAssay data set” (2004)
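In this assay, cells in 96-well plates receive the compound at five concentrations for 48 hours. Endpoints are linearly interpolated between the surrounding concentrations. GI50: concentration for 50% inhibition of growth.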 The source made the active and inactive calls. Rule as the data show it: active = GI50 up to about 1.1 µM and inactive = higher. Where a SMILES comes first, the peptide text is derived from it. [ ]: non-standard residue; d: D form. The star is where a group is joined. ξ: configuration not given here. X38 = O=C(OCc1ccccc1)[C@@H]1CCC[C@H]1N*; Fmoc = O=C(OCC1c2ccccc2-c2ccccc21)*; ξW = NC(Cc1c[nH]c2ccccc12)C(=O)O; ξF = NC(Cc1ccccc1)C(=O)O; Boc = CC(C)(C)OC(=O)*; ξK = NCCCCC(N)C(=O)O; ξT = CC(O)C(N)C(=O)O; tBu = CC(C)(C)*

Experiments:
Experiment in all cases: NCI tumour cell line growth inhibition, 48 h
MDA-MB-435 = system: MDA-MB-435
LOX IMVI = system: LOX IMVI
SNB-75 = system: SNB-75
SF-539 = system: SF-539
PC-3 = system: PC-3
K562 = system: K562
CAKI-1 = system: CAKI-1
A549 = system: A549
SK-MEL-28 = system: SK-MEL-28
RXF 393 = system: RXF 393
NCI-H460 = system: NCI-H460
M14 = system: M14
DU-145 = system: DU-145
SK-MEL-2 = system: SK-MEL-2
SK-MEL-5 = system: SK-MEL-5
SF-268 = system: SF-268
Hs-578T = system: Hs-578T
BT-549 = system: BT-549
MDA-N = system: MDA-N

Measured: GI50

CCOC(=O)c1ccc2nc(NC(=O)COC(=O)CSc3nc(C)cc(C)n3)sc2c1
inactive: MDA-MB-435 > 100 µM | LOX IMVI 48 µM | SNB-75 16.4 µM | SF-539 26.1 µM | PC-3 40.2 µM | K562 > 100 µM | CAKI-1 26.3 µM | A549 42.9 µM | SK-MEL-28 97.3 µM | RXF 393 30.3 µM | NCI-H460 38.7 µM | M14 41.6 µM | DU-145 28.3 µM | SK-MEL-2 > 100 µM | SK-MEL-5 53.3 µM | SF-268 67.8 µM | Hs-578T 36 µM | BT-549 31.2 µM

CC12CCc3ccccc3C1=Nc1ccccc12 (configuration not stated)
inactive: MDA-MB-435 25.3 µM | LOX IMVI 40.8 µM | SNB-75 > 100 µM | SF-539 14.2 µM | PC-3 14.3 µM | K562 31 µM | CAKI-1 17.7 µM | A549 73.5 µM | SK-MEL-28 90.2 µM | RXF 393 74.3 µM | NCI-H460 37.3 µM | M14 32.3 µM | DU-145 > 100 µM | SK-MEL-2 47.9 µM | SK-MEL-5 12.6 µM | SF-268 98.2 µM | Hs-578T 2.14 µM | BT-549 17.8 µM

C=CCn1c(=O)c2ccccc2[n+]2c(-c3cccc([N+](=O)[O-])c3)csc12
inactive: MDA-MB-435 40.8 µM | LOX IMVI 56.8 µM | SNB-75 17.5 µM | SF-539 96.8 µM | PC-3 30.9 µM | K562 28.4 µM | CAKI-1 97.3 µM | A549 42.2 µM | MDA-N 66.2 µM | SK-MEL-28 66.7 µM | RXF 393 37.2 µM | NCI-H460 42.1 µM | M14 62.7 µM | DU-145 50.4 µM | SK-MEL-2 30.6 µM | SK-MEL-5 11.4 µM | SF-268 48.9 µM | Hs-578T 24.4 µM

Cn1c2ccccc2c(=O)c2c(O)cc3c(c21)C=CC1(CCCC1)O3
inactive: MDA-MB-435 > 100 µM | LOX IMVI > 100 µM | SNB-75 > 100 µM | SF-539 50.5 µM | PC-3 > 100 µM | K562 3.51 µM | CAKI-1 > 100 µM | A549 > 100 µM | SK-MEL-28 > 100 µM | RXF 393 22.7 µM | NCI-H460 > 100 µM | M14 > 100 µM | DU-145 > 100 µM | SK-MEL-2 > 100 µM | SK-MEL-5 > 100 µM | SF-268 > 100 µM | Hs-578T 95.7 µM | BT-549 > 100 µM

Cc1ccc(S(=O)(=O)Oc2nc3nc4ccccc4nc3nc2OS(=O)(=O)c2ccc(C)cc2)cc1
inactive: MDA-MB-435 > 100 µM | SNB-75 > 100 µM | SF-539 > 100 µM | PC-3 > 100 µM | CAKI-1 > 100 µM | A549 > 100 µM | SK-MEL-28 > 100 µM | RXF 393 > 100 µM | NCI-H460 > 100 µM | M14 > 100 µM | DU-145 > 100 µM | SK-MEL-2 > 100 µM | SK-MEL-5 > 100 µM | SF-268 > 100 µM | Hs-578T > 100 µM | BT-549 > 100 µM

COC1CC(OC(=O)c2ccccc2)C(OC(=O)c2ccccc2)C(C)O1 (configuration not stated)
inactive: MDA-MB-435 > 100 µM | LOX IMVI > 100 µM | SF-539 > 100 µM | PC-3 > 100 µM | K562 > 100 µM | CAKI-1 > 100 µM | A549 > 100 µM | MDA-N > 100 µM | SK-MEL-28 > 100 µM | RXF 393 > 100 µM | NCI-H460 > 100 µM | M14 > 100 µM | DU-145 > 100 µM | SK-MEL-2 > 100 µM | SK-MEL-5 > 100 µM | SF-268 > 100 µM | Hs-578T 59.8 µM

COc1ccc(/N=C(C)/C(C)=N/c2ccc(OC)cc2)cc1
inactive: MDA-MB-435 8.95 µM | LOX IMVI 5.02 µM | SNB-75 > 100 µM | SF-539 30.8 µM | PC-3 40.7 µM | K562 64.9 µM | CAKI-1 35.5 µM | A549 37.9 µM | SK-MEL-28 > 100 µM | RXF 393 > 100 µM | NCI-H460 20.3 µM | M14 9.91 µM | DU-145 30.9 µM | SK-MEL-2 > 100 µM | SK-MEL-5 64 µM | SF-268 52.5 µM | Hs-578T > 100 µM | BT-549 3.78 µM

N#Cc1ccc(Oc2nc3ccccc3nc2C(=O)O)cc1
inactive: MDA-MB-435 > 100 µM | LOX IMVI > 100 µM | SNB-75 > 100 µM | PC-3 > 100 µM | K562 > 100 µM | CAKI-1 > 100 µM | A549 > 100 µM | SK-MEL-28 > 100 µM | RXF 393 > 100 µM | NCI-H460 > 100 µM | M14 > 100 µM | DU-145 > 100 µM | SK-MEL-2 > 100 µM | SK-MEL-5 > 100 µM | SF-268 > 100 µM | Hs-578T > 100 µM | BT-549 > 100 µM

COC(=O)CN1SC2(SC13C(C)(C)C(=O)C3(C)C)C(C)(C)C(=O)C2(C)C
inactive: MDA-MB-435 56.2 µM | LOX IMVI 46.9 µM | SNB-75 37.8 µM | SF-539 > 100 µM | PC-3 29.2 µM | K562 52.6 µM | CAKI-1 54.2 µM | A549 51.2 µM | SK-MEL-28 > 100 µM | NCI-H460 > 10 µM | M14 > 100 µM | DU-145 31.5 µM | SK-MEL-2 60.7 µM | SK-MEL-5 35.2 µM | SF-268 36.1 µM | Hs-578T > 100 µM | BT-549 27.8 µM

CC(OC(C)(C)C)C(NC(=O)C(CCCCNC(=O)OC(C)(C)C)NC(=O)C(Cc1c[nH]c2ccccc12)NC(=O)C(Cc1ccccc1)NC(=O)OCC1c2ccccc2-c2ccccc21)C(=O)NC(Cc1ccccc1)C(=O)N[C@@H]1CCC[C@H]1C(=O)OCc1ccccc1 (some centres not stated) (Fmoc-[ξF][ξW][ξK](Boc)[ξT](tBu)[ξF]-X38)
inactive: MDA-MB-435 > 100 µM | LOX IMVI > 100 µM | SNB-75 > 100 µM | SF-539 > 100 µM | PC-3 > 100 µM | K562 > 100 µM | CAKI-1 62.2 µM | A549 > 100 µM | MDA-N > 100 µM | SK-MEL-28 > 100 µM | RXF 393 > 100 µM | NCI-H460 > 100 µM | M14 38.9 µM | DU-145 > 100 µM | SK-MEL-2 32.1 µM | SK-MEL-5 14.6 µM | SF-268 > 100 µM | Hs-578T 31 µM

COC(=O)[C@@H]1CN(C(=O)CCc2ccccc2)C(=O)N1
inactive: MDA-MB-435 > 100 µM | LOX IMVI > 100 µM | SF-539 > 100 µM | PC-3 > 100 µM | K562 > 100 µM | CAKI-1 > 100 µM | A549 > 100 µM | MDA-N > 100 µM | SK-MEL-28 > 100 µM | RXF 393 > 100 µM | NCI-H460 86.1 µM | M14 > 100 µM | DU-145 > 100 µM | SK-MEL-2 > 100 µM | SK-MEL-5 > 100 µM | SF-268 > 100 µM | Hs-578T > 100 µM
